Assay results taken from ChEMBL document CHEMBL1127934, “Synthesis of a series of brominated 1-phenyl-2-pyridylethenes as inhibitors of the protein-tyrosine kinase p56lck” (Bioorg Med Chem Lett, 1994).
pIC50: −log10 of the molar value.

Tests used:
[1] = target: Tyrosine-protein kinase Lck (Homo sapiens, UniProt P06239); test: Inhibition of p56 Lck tyrosine kinase
[2] = Inhibition of p56 Lck tyrosine kinase

Tyrosine-protein kinase Lck, sequence (P06239 whole entry): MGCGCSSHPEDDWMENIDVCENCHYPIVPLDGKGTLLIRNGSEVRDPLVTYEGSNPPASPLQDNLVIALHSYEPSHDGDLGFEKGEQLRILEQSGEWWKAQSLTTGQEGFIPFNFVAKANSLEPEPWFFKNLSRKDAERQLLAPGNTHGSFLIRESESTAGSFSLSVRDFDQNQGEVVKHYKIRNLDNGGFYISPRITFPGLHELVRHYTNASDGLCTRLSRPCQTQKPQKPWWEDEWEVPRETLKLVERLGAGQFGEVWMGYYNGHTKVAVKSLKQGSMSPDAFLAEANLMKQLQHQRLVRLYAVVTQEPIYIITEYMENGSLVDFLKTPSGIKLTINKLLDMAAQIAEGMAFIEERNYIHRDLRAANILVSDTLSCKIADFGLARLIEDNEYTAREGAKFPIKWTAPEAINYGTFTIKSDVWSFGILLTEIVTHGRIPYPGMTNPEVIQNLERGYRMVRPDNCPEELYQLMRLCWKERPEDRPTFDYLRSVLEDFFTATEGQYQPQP

## COc1c(Br)cc(/C=C(\C#N)c2ccccn2)cc1Br
[1]
  pIC50: < 2.60

## COc1c(Br)cc(/C=C(\C#N)c2cccnc2)cc1Br
[1]
  pIC50: < 2.60

## N#C/C(=C\c1cc(Br)c(O)c(Br)c1)c1ccccn1
[1]
  pIC50: 3.98

## COc1cc(/C=C/c2cccnc2)cc(OC)c1OC
[2]
  pIC50: 3.29

## COc1cc(/C=C/c2ccccn2)cc(OC)c1OC
[2]
  pIC50: 2.66

## N#CC(Cc1cc(Br)c(O)c(Br)c1)c1ccccn1 (stereo not drawn)
[1]
  pIC50: < 2.68

## COc1cc(/C=C(\C#N)c2cccnc2)cc(Br)c1O
[1]
  pIC50: 3.62

## N#C/C(=C\c1cc(Br)c(O)c(Br)c1)c1cccnc1
[1]
  pIC50: 3.77
